Measured values reported in a melting point compilation (Tetko et al.; mined from patent text by program, amines drawn as free bases though some values may be those of a salt).

Row | Compound | melting point [°C]
1 | Cc1cccc2c(=O)[nH]c(CCCN(C)C)cc12 | 105 to 106
2 | COc1ccc2c(c1)C(=O)N(c1ccc3c(ccn3C)c1)C2 | 193 to 197
3 | COC(=O)c1ccc(Nc2ccc(C#N)cc2N)cc1 | 164 to 165
4 | Cc1ccc(CSc2nnc(-c3ccc4c(c3)CCO4)o2)cc1 | 190 to 191
5 | CNc1ncn(-c2c(Cl)cccc2Cl)c(=O)n1 | 270
6 | COc1ccc(S(=O)(=O)N(CCNC(C)=O)c2ccc(C)cc2Cc2c(F)cccc2F)cc1OC | 79.7
7 | CCOC(=O)c1ccc(OCCCCCCCCCCCCCCCCCCCCOc2ccc(Cl)cc2)cc1 | 78 to 80
8 | COC(=O)[C@H]1[C@@H](NC(=O)COc2ccccc2)C(=O)N1Cc1ccc(OC)cc1OC (relative stereo) | 116
9 | Cc1cnn(-c2nc3ccccc3c(=O)[nH]2)c1 | 169 to 171
10 | NCCc1nc(Cl)ccc1C(=O)O | 158 to 160
11 | O=C(Nc1nc2c(Oc3cc(-c4ccc(C(F)(F)F)cc4)ncn3)cccc2s1)C(O)c1ccccc1 (stereo unspecified) | 198 to 205
12 | CC(=O)c1ccc2c(c1)oc(=O)n2N1CCC(c2noc3cc(F)ccc23)CC1 | 152 to 154
13 | Fc1ccc2sc(CCl)nc2c1 | 99 to 101
14 | O=CN1CCN=C1CC(c1ccccc1)c1ccccc1 | 105 to 107
15 | CCOC(=O)C1(CS(=O)(=O)c2ccc(OC)cc2)CO1 (stereo unspecified) | 77 to 79
16 | COc1ccc(C(=O)OC2(c3nc4ccccc4s3)C=CC(=O)C=C2)cc1 | 137
17 | COc1ccc(COc2ccc(C=C3SC(=S)N(CC(=O)O)C3=O)cc2OCc2ccc(OC)cc2)cc1 | 151 to 155
18 | COc1ccc(-c2cnn3cc(C(=O)O)cnc23)cc1OC | 229 to 231
19 | C#Cc1cnc2ccc(OC(SC)C(=O)NC(C)(C#N)CO)cc2c1 (stereo unspecified) | 78 to 80
20 | CN1CCC(NC(=O)Nc2ccccc2CCc2cc(C(C)(C)C)c(O)c(C(C)(C)C)c2)CC1 | 193 to 195
21 | CN(c1cccc2cc(C3=NCC(C)(CN4CCOCC4)S3)[nH]c12)S(=O)(=O)c1cccs1 (stereo unspecified) | 146 to 147

Row | Compound | melting point [°C]
22 | Cc1ccc(-c2nc(Cc3cccc(CC(CO)CO)c3)c(C)o2)cc1 | 114 to 115
23 | O=C1C2=NCCCN2c2ccc(Br)cc21 | 166 to 168
24 | CCOc1cc(=O)n(-c2ccc([N+](=O)[O-])cc2)[nH]1 | 143
25 | COc1cc(C(=O)NN2CCN(C3CCCC3)CC2)ccc1Nc1ncc2c(n1)N(C1CCCCC1)CC(F)(F)C(=O)N2C | 98 to 99
26 | Nc1nc(COCc2ccccc2)nc2nccnc12 | 112 to 114
27 | CCNc1nc(-c2cccc(C3=Nc4cc(N(C)C)c(Cl)cc4NC(=O)C3)c2)cs1 | 122 to 123
28 | CCC1CCn2c(nc(-c3ccncc3)cc2=O)N1 (stereo unspecified) | 244 to 246
29 | O=C1c2ccccc2C(=O)N1CC#CCSc1nccc(NC(=S)NCC(F)(F)F)n1 | 124 to 127
30 | O=C(CC(O)(Cn1cncn1)c1ccc(Cl)cc1Cl)N1CC1 (stereo unspecified) | 151 to 153
31 | CC1NC(=O)N(C)N=C1c1ccccc1 (stereo unspecified) | 99.5 to 101
32 | O=P(O)(O)CC(O)CNO (stereo unspecified) | 153 to 155
33 | CC(=O)OC1O[C@H](CC#N)[C@@H](OC(=O)c2ccccc2)[C@H]1OC(=O)c1ccccc1 (stereo partly specified) | 124 to 126
34 | CC(=O)NC(=N)NCCSCc1[nH]cnc1C | 163 to 164
35 | CCOc1c(C(=O)Nc2ccccc2)csc1Cl | 69
36 | Cc1nc2c(cc1C(=O)N(C(=N)N)C(=O)OC(C)(C)C)CCCCC2CO (stereo unspecified) | 98 to 100
37 | CC1(C)OC2c3cc(F)ccc3N3CCC2(CC3)O1 (stereo unspecified) | 120 to 122
38 | Oc1ccccc1Cc1ccc2ccccc2c1O | 124 to 125
39 | O=C(CC(=O)c1cc(CN2CCOCC2)sc1Cl)NCc1ccc(Cl)cc1 | 109 to 112
40 | CNC(=NS(C)(=O)=O)NCCCCCc1nc(N)nc(N)n1 | 194 to 195
41 | Cc1ccoc1C(=O)Nc1c(C)cc(N2CCCOCC2)nc1N1CC[C@@H](F)C1 | 93 to 96
